Experimental data published in patent publication US4277498A, “Amides” (Burroughs Wellcome Co., priority 1976, dated 1981).
Where a name gives a salt, the structure may show the parent alone. Read-outs that look alike come from different tables or passages of the source.

Legend:
[1] = Anti-tetrabenazine test (ptosis and sedation), Example 37; assay type: in vivo, Female albino mice; settings: Mus musculus, po
Procedure: Female albino mice were grouped, six per cage. Compounds of formula (I) as the respective salt in saline solution were administered orally, thirty minutes prior to the administration of tetrabenazine, 50 mg/kg, i.p. The animals were scored according to the method of V. G. Vernier, H. M. Hanson and C. A. Stone: Psychosomatic medicine, ch.

[2] = in vivo; settings: mouse, po, mice, p.o. as salt in saline, deaths within two days
Procedure: Several groups of mice were treated with specific doses of compounds of formula (I) as orally administered salts in saline solution. After treatment of each group with a different dose of a specific compound the number of mice dead in each group within two days was noted. […] The LD50 value is the lethal dose required to kill half of the treated animals.
The procedure was repeated with other groups of mice for other compounds of formula (I).

[3] = tetrabenazine-induced sedation test in the rat (general statements on antidepressant activity); assay type: in vivo; settings: acceptable salts
[4] = ptosis, mice, p.o. as salt in saline, 30 min before tetrabenazine 50 mg/kg i.p., read-out: Anti-depressant activity, approx. ED50 values, p.o., Ptosis
[5] = sedation, mice, p.o. as salt in saline, 30 min before tetrabenazine 50 mg/kg i.p., read-out: Anti-depressant activity, approx. ED50 values, p.o., Sedation

SMILES | ED50 [1, 4] [mg/kg] | ED50 [1, 5] [mg/kg] | LD50 at 48 h [2] [mg/kg] | also measured
CC1(NC(=O)CN)CCCCC1 [Example 3, hydrogen oxalate, 2-Amino-N-(1-methylcyclohexyl)acetamide] | ~6.92 | ~5.69 | > 2000 | 
CC(C)(CC1CCCC1)NC(=O)CN.CCO.O=C(O)/C=C/C(=O)O [Example 11, hydrogen fumarate, 2-Amino-N-(1,1-dimethyl-2-cyclopentylethyl)acetamide hydrogen fumarate monoethanolate] |  |  | 575 | ED50 ([1]; read-out: Anti-depressant activity, approx. ED50 values, p.o., Ptosis): ~5 mg/kg; ED50 ([1]; read-out: Anti-depressant activity, approx. ED50 values, p.o., Sedation): ~5 mg/kg
CC(CC1CCCCC1)NC(=O)CN (racemic) [Example 9, hydrogen fumarate, (±)-2-Amino-N-(2-cyclohexyl)-1-methylethyl)acetamide hydrogen fumarate] | ~6 | ~7.5 |  | 
CC(C)(CC1CCCC1)NC(=O)CN [2-amino-N-(2-cyclopentyl-1,1-dimethylethyl)acetamide] |  |  |  | antidepressant activity in the tetrabenazine-induced sedation test [3]: have shown antidepressant activity
CCCCCCC(C)(C)NC(=O)CN [Example 7, hydrogen fumarate, 2-Amino-N-(1,1-dimethylheptyl)acetamide] |  |  | 1000 | 
CC(C)CCCC(C)(C)NC(=O)CN [Example 12, hydrogen succinate, 2-amino-N-(1,1,5-trimethylhexyl)acetamide] | ~8 | ~2.5 |  | 
CC(C)CCCC(C)(C)NC(=O)CN [2-amino-N-(1,1,5-trimethylhexyl)acetamide] |  |  |  | antidepressant activity in the tetrabenazine-induced sedation test [3]: have shown antidepressant activity
CCCC(C)CC(C)(C)NC(=O)CN (stereo not drawn) [Example 6, hydrogen fumarate, 2-amino-N-(1,1,3-trimethylhexyl)acetamide] | ~18.7 | ~9.5 |  | 
CCCCCC(C)(C)NC(=O)CN [Example 2, hydrogen oxalate, 2-amino-N-(1,1-dimethylhexyl)acetamide] | ~3.5 | ~2.3 |  | 
CC1(NC(=O)CN)CCCCCC1 [Example 4, hydrogen oxalate, 2-Amino-N-(1-methylcycloheptyl)acetamide] | ~5 | ~10.6 | 1110 | 
CCCCCC(C)NC(=O)CN (stereo not drawn) [2-amino-N-(1-methylhexyl)acetamide] |  |  |  | antidepressant activity in the tetrabenazine-induced sedation test [3]: have shown antidepressant activity
CCCCCC(C)NC(=O)CN.O=C(O)CCC(=O)O (stereo not drawn) [Example 8, hydrogen succinate, 2-Amino-N-(1-methylhexyl)acetamide hydrogen succinate] | ~3.8 | ~2.7 | 500 | 
CCCCC(C)(C)NC(=O)CN.O=C(O)C(=O)O [Example 5, hydrogen oxalate, 2-amino-N-(1,1-dimethylpentyl)acetamide hydrogen oxalate] | ~20 | ~10 | 536 | 
